Assay results reported in PubChem BioAssay AID720672 (NMMLSC, 2013).
Active and inactive are the calls of the source. How the calls were made is not given here.

target: Lethal factor (Bacillus anthracis) (UniProt P15917); test: Bacillus anthracis LF protease inhibitors, dose response, biochemical, multiplex microsphere (AID 720672); details: multiplex microsphere LF protease substrate cleavage, flow cytometry
Sequence (P15917 whole entry, looked up): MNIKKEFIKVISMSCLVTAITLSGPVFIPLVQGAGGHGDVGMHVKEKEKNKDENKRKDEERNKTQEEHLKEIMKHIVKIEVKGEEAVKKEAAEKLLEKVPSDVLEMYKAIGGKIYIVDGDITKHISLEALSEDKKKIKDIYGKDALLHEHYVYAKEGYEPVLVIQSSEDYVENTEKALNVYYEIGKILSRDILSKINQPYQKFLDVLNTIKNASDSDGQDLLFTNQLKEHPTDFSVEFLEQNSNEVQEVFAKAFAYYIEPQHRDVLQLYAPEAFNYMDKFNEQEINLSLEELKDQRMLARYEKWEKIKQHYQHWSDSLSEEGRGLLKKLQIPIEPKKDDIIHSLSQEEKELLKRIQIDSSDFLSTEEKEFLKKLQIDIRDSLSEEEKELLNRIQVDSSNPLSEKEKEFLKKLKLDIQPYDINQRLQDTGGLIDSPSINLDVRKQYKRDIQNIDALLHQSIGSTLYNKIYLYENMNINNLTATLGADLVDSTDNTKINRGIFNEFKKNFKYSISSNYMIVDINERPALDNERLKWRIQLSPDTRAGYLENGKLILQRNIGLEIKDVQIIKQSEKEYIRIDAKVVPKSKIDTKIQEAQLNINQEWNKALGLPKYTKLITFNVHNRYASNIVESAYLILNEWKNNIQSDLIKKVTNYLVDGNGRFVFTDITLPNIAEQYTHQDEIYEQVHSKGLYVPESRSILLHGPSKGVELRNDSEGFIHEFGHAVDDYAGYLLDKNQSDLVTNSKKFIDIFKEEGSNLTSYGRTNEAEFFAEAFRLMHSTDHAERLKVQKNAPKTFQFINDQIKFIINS

| Structure (SMILES) | IC50 |
| --- | --- |
| COc1ccc(-c2cn3nc(-c4ccc(OC)cc4)c(-c4ccc(OC)cc4)nc3n2)cc1 | > 20 µM (inactive) |
| COc1ccc(-c2nc3nc(-c4ccc(C)cc4)cn3nc2-c2ccc(OC)cc2)cc1 | > 20 µM (inactive) |
| Fc1cccc(-c2cn3nc(-c4ccccc4)c(-c4ccccc4)nc3n2)c1 | 11.5 µM |
| CS(=O)(=O)c1ccc(-c2cn3nc(-c4ccccc4)c(-c4ccccc4)nc3n2)cc1 | > 20 µM (inactive) |
| CCNC(=S)Nc1ccc2nc(-c3ccccc3)c(-c3ccccc3)nc2c1 | > 20 µM (inactive) |
| CCCOC(=O)Nc1ccc2nc(-c3ccccc3)c(-c3ccccc3)nc2c1 | > 20 µM (inactive) |
| CCC(=O)Nc1ccc2nc(-c3ccccc3)c(-c3ccccc3)nc2c1 | > 20 µM (inactive) |
| COc1ccc(-c2nc3nc(-c4ccc(C#N)cc4)cn3nc2-c2ccc(OC)cc2)cc1 | > 20 µM (inactive) |
| COc1cccc(-c2cn3nc(-c4ccc(C)cc4)c(-c4ccc(C)cc4)nc3n2)c1 | 4.3 µM |
| COc1ccc(-c2nc3nc(-c4cccc(F)c4)cn3nc2-c2ccc(OC)cc2)cc1 | 5.5 µM |
| O=S(=O)(Nc1ccc2nc(-c3ccccc3)c(-c3ccccc3)nc2c1)C1CC1 | > 20 µM (inactive) |
| COC(=O)Nc1ccc2nc(-c3cccs3)c(-c3cccs3)nc2c1 | > 20 µM (inactive) |
| CCNC(=O)Nc1ccc2nc(-c3ccccc3)c(-c3ccccc3)nc2c1 | > 20 µM (inactive) |
| CC(C)NC(=O)Nc1ccc2nc(-c3cccs3)c(-c3cccs3)nc2c1 | > 20 µM (inactive) |
| O=S(=O)(Nc1ccc2nc(-c3cccs3)c(-c3cccs3)nc2c1)C1CC1 | > 20 µM (inactive) |
| Fc1ccc(-c2cn3nc(-c4ccccc4)c(-c4ccccc4)nc3n2)cc1 | > 20 µM (inactive) |
| COc1ccc(-c2nc3nc(-c4ccccc4OC)cn3nc2-c2ccc(OC)cc2)cc1 | 6.1 µM |
| COc1cccc(-c2cn3nc(-c4ccc(F)cc4)c(-c4ccc(F)cc4)nc3n2)c1 | 7.5 µM |
| Fc1ccc(-c2cn3nc(-c4ccc(F)cc4)c(-c4ccc(F)cc4)nc3n2)cc1 | 4 µM |
| COc1ccc(-c2cn3nc(-c4ccccc4)c(-c4ccccc4)nc3n2)c(OC)c1 | > 20 µM (inactive) |
| N#Cc1ccc(-c2cn3nc(-c4ccc(F)cc4)c(-c4ccc(F)cc4)nc3n2)cc1 | > 20 µM (inactive) |

| Structure (SMILES) | IC50 |
| --- | --- |
| O=C(Nc1ccc2nc(-c3cccs3)c(-c3cccs3)nc2c1)NC1CCCC1 | > 20 µM (inactive) |
| Cc1ccc(-c2nc3nc(-c4ccc(S(C)(=O)=O)cc4)cn3nc2-c2ccc(C)cc2)cc1 | > 20 µM (inactive) |
| COc1ccc(-c2cn3nc(-c4ccc(F)cc4)c(-c4ccc(F)cc4)nc3n2)c(OC)c1 | 2.9 µM |
| CCOC(=O)Nc1ccc2nc(-c3cccs3)c(-c3cccs3)nc2c1 | > 20 µM (inactive) |
| CCCCOC(=O)Nc1ccc2nc(-c3cccs3)c(-c3cccs3)nc2c1 | 16.4 µM |
| COc1ccc(-c2cn3nc(-c4ccc(C)cc4)c(-c4ccc(C)cc4)nc3n2)c(OC)c1 | > 20 µM (inactive) |
| COc1ccc(-c2cn3nc(-c4ccc(F)cc4)c(-c4ccc(F)cc4)nc3n2)cc1 | 6.5 µM |
| COc1ccc(-c2nc3nc(-c4ccc(OC(F)(F)F)cc4)cn3nc2-c2ccc(OC)cc2)cc1 | 3.7 µM |
| O=C(Nc1ccc2nc(-c3cccs3)c(-c3cccs3)nc2c1)OCc1ccccc1 | > 20 µM (inactive) |
| Clc1ccc(-c2cn3nc(-c4ccccc4)c(-c4ccccc4)nc3n2)c(Cl)c1 | > 20 µM (inactive) |
| COc1ccc(-c2nc3nc(-c4cccc(OC)c4)cn3nc2-c2ccc(OC)cc2)cc1 | 10.1 µM |
| O=C(Nc1ccc2nc(-c3ccccc3)c(-c3ccccc3)nc2c1)OCc1ccccc1 | > 20 µM (inactive) |
| CC(C)(C)C(=O)Nc1ccc2nc(-c3ccccc3)c(-c3ccccc3)nc2c1 | > 20 µM (inactive) |
| O=C(Nc1ccc2nc(-c3ccccc3)c(-c3ccccc3)nc2c1)NC1CCCC1 | > 20 µM (inactive) |
| CCS(=O)(=O)Nc1ccc2nc(-c3ccccc3)c(-c3ccccc3)nc2c1 | > 20 µM (inactive) |
| CCCS(=O)(=O)Nc1ccc2nc(-c3cccs3)c(-c3cccs3)nc2c1 | > 20 µM (inactive) |
| CCCNC(=O)Nc1ccc2nc(-c3ccccc3)c(-c3ccccc3)nc2c1 | > 20 µM (inactive) |
| COc1ccc(-c2nc3nc(-c4ccc(OC)cc4OC)cn3nc2-c2ccc(OC)cc2)cc1 | > 20 µM (inactive) |
| CC(=O)Nc1ccc2nc(-c3ccccc3)c(-c3ccccc3)nc2c1 | > 20 µM (inactive) |
| CCCCOC(=O)Nc1ccc2nc(-c3ccccc3)c(-c3ccccc3)nc2c1 | > 20 µM (inactive) |
| COc1ccc(-c2cn3nc(-c4ccc(C)cc4)c(-c4ccc(C)cc4)nc3n2)cc1 | > 20 µM (inactive) |

| Structure (SMILES) | IC50 |
| --- | --- |
| CC(Oc1ccccc1)C(=O)Nc1ccc2nc(-c3ccccc3)c(-c3ccccc3)nc2c1 (configuration not stated) | > 20 µM (inactive) |
| Fc1ccc(-c2nc3nc(-c4ccc(OC(F)(F)F)cc4)cn3nc2-c2ccc(F)cc2)cc1 | > 20 µM (inactive) |
| Cc1ccc(-c2nc3nc(-c4ccc(C#N)cc4)cn3nc2-c2ccc(C)cc2)cc1 | > 20 µM (inactive) |
| Cc1ccc(-c2nc3nc(-c4ccccc4)cn3nc2-c2ccc(C)cc2)cc1 | 6.8 µM |
| Fc1ccc(-c2nc3nc(-c4ccccc4)cn3nc2-c2ccc(F)cc2)cc1 | 9.6 µM |
| O=C(Nc1ccc2nc(-c3ccccc3)c(-c3ccccc3)nc2c1)C1CC1 | > 20 µM (inactive) |
| CCCOC(=O)Nc1ccc2nc(-c3cccs3)c(-c3cccs3)nc2c1 | > 20 µM (inactive) |
| O=C(Nc1ccc2nc(-c3ccccc3)c(-c3ccccc3)nc2c1)C1CCCC1 | > 20 µM (inactive) |
| Fc1ccc(-c2nc3nc(-c4cccc(F)c4)cn3nc2-c2ccc(F)cc2)cc1 | 6.7 µM |
| Cc1ccc(-c2nc3nc(-c4ccc(F)cc4)cn3nc2-c2ccc(C)cc2)cc1 | 5.9 µM |
| CC(C)OC(=O)Nc1ccc2nc(-c3cccs3)c(-c3cccs3)nc2c1 | > 20 µM (inactive) |
| Cc1ccc(-c2nc3nc(-c4ccc(OC(F)(F)F)cc4)cn3nc2-c2ccc(C)cc2)cc1 | > 20 µM (inactive) |
| N#Cc1ccc(-c2cn3nc(-c4ccccc4)c(-c4ccccc4)nc3n2)cc1 | > 20 µM (inactive) |
| CC(C)OC(=O)Nc1ccc2nc(-c3ccccc3)c(-c3ccccc3)nc2c1 | > 20 µM (inactive) |
| FC(F)(F)Oc1ccc(-c2cn3nc(-c4ccccc4)c(-c4ccccc4)nc3n2)cc1 | 17.9 µM |
| CS(=O)(=O)c1ccc(-c2cn3nc(-c4ccc(F)cc4)c(-c4ccc(F)cc4)nc3n2)cc1 | > 20 µM (inactive) |
| CCCS(=O)(=O)Nc1ccc2nc(-c3ccccc3)c(-c3ccccc3)nc2c1 | > 20 µM (inactive) |
| COC(=O)Nc1ccc2nc(-c3ccccc3)c(-c3ccccc3)nc2c1 | > 20 µM (inactive) |
| O=C(Nc1ccc2nc(-c3ccccc3)c(-c3ccccc3)nc2c1)C1CCCCC1 | > 20 µM (inactive) |
| O=C(Nc1ccc2nc(-c3ccccc3)c(-c3ccccc3)nc2c1)C1CCC1 | > 20 µM (inactive) |
| CCOC(=O)Nc1ccc2nc(-c3ccccc3)c(-c3ccccc3)nc2c1 | > 20 µM (inactive) |

| Structure (SMILES) | IC50 |
| --- | --- |
| Cc1ccc(-c2nc3nc(-c4cccc(F)c4)cn3nc2-c2ccc(C)cc2)cc1 | 3.7 µM |
| COc1ccc(-c2nc3nc(-c4ccc(S(C)(=O)=O)cc4)cn3nc2-c2ccc(OC)cc2)cc1 | > 20 µM (inactive) |
| COc1ccccc1-c1cn2nc(-c3ccc(F)cc3)c(-c3ccc(F)cc3)nc2n1 | 5.4 µM |
| COc1ccccc1-c1cn2nc(-c3ccccc3)c(-c3ccccc3)nc2n1 | > 20 µM (inactive) |
| COc1ccc(-c2nc3nc(-c4ccc(F)cc4)cn3nc2-c2ccc(OC)cc2)cc1 | 3.1 µM |
| CC(C)NC(=O)Nc1ccc2nc(-c3ccccc3)c(-c3ccccc3)nc2c1 | > 20 µM (inactive) |
| CC(C)CS(=O)(=O)Nc1ccc2nc(-c3cccs3)c(-c3cccs3)nc2c1 | > 20 µM (inactive) |
| O=C(Nc1ccc2nc(-c3cccs3)c(-c3cccs3)nc2c1)C1CC1 | > 20 µM (inactive) |
| CC(C)(C)NC(=O)Nc1ccc2nc(-c3ccccc3)c(-c3ccccc3)nc2c1 | > 20 µM (inactive) |
| CCC(=O)Nc1ccc2nc(-c3cccs3)c(-c3cccs3)nc2c1 | > 20 µM (inactive) |
| COc1ccccc1-c1cn2nc(-c3ccc(C)cc3)c(-c3ccc(C)cc3)nc2n1 | 12.9 µM |
| Cc1ccc(-c2cn3nc(-c4ccc(F)cc4)c(-c4ccc(F)cc4)nc3n2)cc1 | 7.2 µM |
| CCNC(=O)Nc1ccc2nc(-c3cccs3)c(-c3cccs3)nc2c1 | 16.3 µM |
| CC(C)CS(=O)(=O)Nc1ccc2nc(-c3ccccc3)c(-c3ccccc3)nc2c1 | > 20 µM (inactive) |
| COc1cccc(-c2cn3nc(-c4ccccc4)c(-c4ccccc4)nc3n2)c1 | 15.2 µM |
| COc1ccc(-c2nc3nc(-c4ccccc4)cn3nc2-c2ccc(OC)cc2)cc1 | 6.3 µM |
| O=C(Nc1ccc2nc(-c3cccs3)c(-c3cccs3)nc2c1)C1CCC1 | > 20 µM (inactive) |
| O=C(Nc1ccc2nc(-c3cccs3)c(-c3cccs3)nc2c1)C1CCCC1 | > 20 µM (inactive) |
| Cc1ccc(-c2cn3nc(-c4ccc(C)cc4)c(-c4ccc(C)cc4)nc3n2)cc1 | 5.1 µM |
